# Experimental data as given in PubChem BioAssay (NCI).
#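 Cells were grown in 96-well plates and exposed to each compound for 48 hours at five concentrations; endpoints were interpolated linearly between bracketing concentrations, or set to the highest concentration if not reached. Abbreviation: GI50, concentration required for 50% inhibition of growth. The concentration for full growth arrest is given as TGI.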
# Experiments:
# Test in all cases: NCI tumour cell line growth inhibition, 48 h
# 786-0 renal = tested on: 786-0 renal
# A498 renal = tested on: A498 renal
# A549 NSCLC = tested on: A549 NSCLC
# ACHN renal = tested on: ACHN renal
# BT-549 breast = tested on: BT-549 breast
# CAKI-1 renal = tested on: CAKI-1 renal
# CCRF-CEM leukemia = tested on: CCRF-CEM leukemia
# COLO 205 colon = tested on: COLO 205 colon
# DU-145 prostate = tested on: DU-145 prostate
# EKVX NSCLC = tested on: EKVX NSCLC
# HCC-2998 colon = tested on: HCC-2998 colon
# HCT-116 colon = tested on: HCT-116 colon
# HCT-15 colon = tested on: HCT-15 colon
# HL-60(TB) leukemia = tested on: HL-60(TB) leukemia
# HOP-62 NSCLC = tested on: HOP-62 NSCLC
# HOP-92 NSCLC = tested on: HOP-92 NSCLC
# HS 578T breast = tested on: HS 578T breast
# HT29 colon = tested on: HT29 colon
# IGROV1 ovarian = tested on: IGROV1 ovarian
# K-562 leukemia = tested on: K-562 leukemia
# KM12 colon = tested on: KM12 colon
# LOX IMVI melanoma = tested on: LOX IMVI melanoma
# M14 melanoma = tested on: M14 melanoma
# MALME-3M melanoma = tested on: MALME-3M melanoma
# MCF7 breast = tested on: MCF7 breast
# MDA-MB-231 breast = tested on: MDA-MB-231 breast
# MDA-MB-435 = tested on: MDA-MB-435
# MDA-MB-468 breast = tested on: MDA-MB-468 breast
# MOLT-4 leukemia = tested on: MOLT-4 leukemia
# NCI-H226 lung = tested on: NCI-H226 lung
# NCI-H23 lung = tested on: NCI-H23 lung
# NCI-H460 lung = tested on: NCI-H460 lung
# NCI-H522 lung = tested on: NCI-H522 lung
# OVCAR-3 ovarian = tested on: OVCAR-3 ovarian
# OVCAR-4 ovarian = tested on: OVCAR-4 ovarian
# OVCAR-5 ovarian = tested on: OVCAR-5 ovarian
# OVCAR-8 ovarian = tested on: OVCAR-8 ovarian
# PC-3 prostate = tested on: PC-3 prostate
# RPMI-8226 leukemia = tested on: RPMI-8226 leukemia
# RXF 393 renal = tested on: RXF 393 renal
# SF-268 CNS = tested on: SF-268 CNS
# SF-295 CNS = tested on: SF-295 CNS
# SF-539 CNS = tested on: SF-539 CNS
# SK-MEL-2 melanoma = tested on: SK-MEL-2 melanoma
# SK-MEL-28 melanoma = tested on: SK-MEL-28 melanoma
# SK-MEL-5 melanoma = tested on: SK-MEL-5 melanoma
# SK-OV-3 ovarian = tested on: SK-OV-3 ovarian
# SN12C renal = tested on: SN12C renal
# SNB-19 CNS = tested on: SNB-19 CNS
# SNB-75 CNS = tested on: SNB-75 CNS
# SR leukemia = tested on: SR leukemia
# SW-620 colon = tested on: SW-620 colon
# T-47D breast = tested on: T-47D breast
# TK-10 renal = tested on: TK-10 renal
# U251 CNS = tested on: U251 CNS
# UACC-257 melanoma = tested on: UACC-257 melanoma
# UACC-62 melanoma = tested on: UACC-62 melanoma
# UO-31 renal = tested on: UO-31 renal
structure (smiles),measurement,setting,value
C=C1CC[C@@H]2[C@]3(C)COC(c4cn[nH]c4-c4ccccc4)O[C@@H]3CC[C@@]2(C)[C@@H]1C/C=C1/C(=O)OCC1O (stereo partly specified),GI50,786-0 renal,18.8 µM
same,TGI,786-0 renal,43 µM
same,GI50,A498 renal,30.9 µM
same,TGI,A498 renal,> 100 µM
same,GI50,A549 NSCLC,17.3 µM
same,TGI,A549 NSCLC,51.8 µM
same,GI50,ACHN renal,17.6 µM
same,TGI,ACHN renal,69.1 µM
same,GI50,BT-549 breast,15.2 µM
same,TGI,BT-549 breast,43.3 µM
same,GI50,CAKI-1 renal,11.6 µM
same,TGI,CAKI-1 renal,32.2 µM
same,GI50,CCRF-CEM leukemia,4.83 µM
same,TGI,CCRF-CEM leukemia,42.5 µM
same,GI50,COLO 205 colon,15 µM
same,TGI,COLO 205 colon,28.2 µM
same,GI50,DU-145 prostate,13.8 µM
same,TGI,DU-145 prostate,35.4 µM
same,GI50,EKVX NSCLC,14.5 µM
same,TGI,EKVX NSCLC,32.7 µM
same,GI50,HCC-2998 colon,15.8 µM
same,TGI,HCC-2998 colon,29.3 µM
same,GI50,HCT-116 colon,12.2 µM
same,TGI,HCT-116 colon,32.2 µM
same,GI50,HCT-15 colon,13.2 µM
same,TGI,HCT-15 colon,27.2 µM
same,GI50,HL-60(TB) leukemia,13.3 µM
same,TGI,HL-60(TB) leukemia,67.5 µM
same,GI50,HOP-62 NSCLC,16.1 µM
same,TGI,HOP-62 NSCLC,35.6 µM
same,GI50,HOP-92 NSCLC,9.14 µM
same,TGI,HOP-92 NSCLC,30.6 µM
same,GI50,HS 578T breast,9.81 µM
same,TGI,HS 578T breast,54.7 µM
same,GI50,HT29 colon,15.4 µM
same,TGI,HT29 colon,32.7 µM
same,GI50,IGROV1 ovarian,17 µM
same,TGI,IGROV1 ovarian,42.8 µM
same,GI50,K-562 leukemia,12.8 µM
same,TGI,K-562 leukemia,> 100 µM
same,GI50,KM12 colon,11.3 µM
same,TGI,KM12 colon,54.9 µM
same,GI50,LOX IMVI melanoma,10.9 µM
same,TGI,LOX IMVI melanoma,25 µM
same,GI50,M14 melanoma,14.4 µM
same,TGI,M14 melanoma,28.2 µM
same,GI50,MALME-3M melanoma,13.2 µM
same,TGI,MALME-3M melanoma,30.5 µM
same,GI50,MCF7 breast,10.5 µM
same,TGI,MCF7 breast,34.9 µM
same,GI50,MDA-MB-231 breast,15.8 µM
same,TGI,MDA-MB-231 breast,32.8 µM
same,GI50,MDA-MB-435,13.5 µM
same,TGI,MDA-MB-435,29.8 µM
same,GI50,MDA-MB-468 breast,9 µM
same,TGI,MDA-MB-468 breast,32.6 µM
same,GI50,MOLT-4 leukemia,3.83 µM
same,TGI,MOLT-4 leukemia,54.5 µM
same,GI50,NCI-H226 lung,16.1 µM
same,TGI,NCI-H226 lung,37.8 µM
same,GI50,NCI-H23 lung,13.6 µM
same,TGI,NCI-H23 lung,26.5 µM
same,GI50,NCI-H460 lung,15.3 µM
same,TGI,NCI-H460 lung,32.3 µM
same,GI50,NCI-H522 lung,14.1 µM
same,TGI,NCI-H522 lung,29.8 µM
same,GI50,OVCAR-3 ovarian,11.1 µM
same,TGI,OVCAR-3 ovarian,37.5 µM
same,GI50,OVCAR-4 ovarian,15.2 µM
same,TGI,OVCAR-4 ovarian,52 µM
same,GI50,OVCAR-5 ovarian,19.2 µM
same,TGI,OVCAR-5 ovarian,37.7 µM
same,GI50,OVCAR-8 ovarian,18 µM
same,TGI,OVCAR-8 ovarian,49.6 µM
same,GI50,PC-3 prostate,12.2 µM
same,TGI,PC-3 prostate,> 100 µM
same,GI50,RPMI-8226 leukemia,8.39 µM
same,TGI,RPMI-8226 leukemia,93.8 µM
same,GI50,RXF 393 renal,8.5 µM
same,TGI,RXF 393 renal,21.7 µM
same,GI50,SF-268 CNS,18.5 µM
same,TGI,SF-268 CNS,75.4 µM
same,GI50,SF-295 CNS,15.4 µM
same,TGI,SF-295 CNS,30.5 µM
same,GI50,SF-539 CNS,15.6 µM
same,TGI,SF-539 CNS,30.3 µM
same,GI50,SK-MEL-2 melanoma,14.8 µM
same,TGI,SK-MEL-2 melanoma,28.7 µM
same,GI50,SK-MEL-28 melanoma,13.7 µM
same,TGI,SK-MEL-28 melanoma,26.8 µM
same,GI50,SK-MEL-5 melanoma,12.4 µM
same,TGI,SK-MEL-5 melanoma,24.8 µM
same,GI50,SK-OV-3 ovarian,22 µM
same,TGI,SK-OV-3 ovarian,63.5 µM
same,GI50,SN12C renal,22 µM
same,TGI,SN12C renal,70 µM
same,GI50,SNB-19 CNS,15 µM
same,TGI,SNB-19 CNS,28.5 µM
same,GI50,SNB-75 CNS,10.4 µM
same,TGI,SNB-75 CNS,35.1 µM
same,GI50,SR leukemia,21.2 µM
same,TGI,SR leukemia,> 100 µM
same,GI50,SW-620 colon,14.4 µM
same,TGI,SW-620 colon,33.3 µM
same,GI50,T-47D breast,20.2 µM
same,TGI,T-47D breast,> 100 µM
same,GI50,TK-10 renal,20.2 µM
same,TGI,TK-10 renal,51.7 µM
same,GI50,U251 CNS,14.3 µM
same,TGI,U251 CNS,28.6 µM
same,GI50,UACC-257 melanoma,15.6 µM
same,TGI,UACC-257 melanoma,36.1 µM
same,GI50,UACC-62 melanoma,13.5 µM
same,TGI,UACC-62 melanoma,28.7 µM
same,GI50,UO-31 renal,11.5 µM
same,TGI,UO-31 renal,28 µM
